Laboratory results taken from ChEMBL document CHEMBL1135952, “Successful bridging from a peptide to a non peptide antagonist at the human tachykinin NK-2 receptor” (Bioorg Med Chem Lett, 2002).

Experiments:
[1] = molecular target: T1, Substance-K receptor (Homo sapiens, UniProt P21452); experiment: Compound was tested for it's binding affinity against human Tachykinin receptor 2
T1 sequence (P21452 whole entry): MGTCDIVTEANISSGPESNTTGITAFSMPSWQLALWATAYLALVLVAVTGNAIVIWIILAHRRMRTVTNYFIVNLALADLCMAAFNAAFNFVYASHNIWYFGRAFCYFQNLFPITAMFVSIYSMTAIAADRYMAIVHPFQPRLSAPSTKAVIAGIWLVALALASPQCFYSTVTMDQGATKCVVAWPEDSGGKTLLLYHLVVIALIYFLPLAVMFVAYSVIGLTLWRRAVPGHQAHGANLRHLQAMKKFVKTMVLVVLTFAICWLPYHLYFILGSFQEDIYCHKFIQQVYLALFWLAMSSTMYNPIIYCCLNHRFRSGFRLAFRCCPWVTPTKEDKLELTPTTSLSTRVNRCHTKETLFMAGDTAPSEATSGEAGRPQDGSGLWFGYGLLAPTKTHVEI

[2] = molecular target: T1, Substance-K receptor; experiment: Functional affinity was evaluated by measuring the intracellular calcium concentration in CHO cells transfected with the human Tachykinin receptor 2 using Fura-2; format: cell-based; conditions: read-out: pA2 (converted)

O=C(c1ccccc1C(=O)N(CCCN1CCOCC1)CCc1c[nH]c2ccccc12)N(CCCN1CCOCC1)CCc1c[nH]c2ccccc12
Ki [1]: 31.6 nM

O=C(c1ccccc1C(=O)N(CCCN1CCSCC1)CCc1c[nH]c2ccccc12)N(CCCN1CCSCC1)CCc1c[nH]c2ccccc12
Ki [1]: 3.98 nM | Kb [2]: 3.98 nM

O=C(NCCc1c[nH]c2ccccc12)c1nccnc1C(=O)N(CCCN1CCOCC1)CCc1c[nH]c2ccccc12
Ki [1]: 501 nM

CN(CCc1c[nH]c2ccccc12)C(=O)c1ccccc1C(=O)N(CCCN1CCSCC1)CCc1c[nH]c2ccccc12
Ki [1]: 10 nM | Kb [2]: 10 nM

O=C(c1nccnc1C(=O)N(CCCN1CCOCC1)CCc1c[nH]c2ccccc12)N(CCCN1CCOCC1)CCc1c[nH]c2ccccc12
Ki [1]: 126 nM

CN(C)CCN(C)C(=O)c1nccnc1C(=O)N[C@@H]1CC(=O)N[C@@H](Cc2c[nH]c3ccccc23)C(=O)N[C@@H](Cc2ccccc2)C(=O)N[C@H](Cc2ccccc2)CNC1=O
Ki [1]: 2 nM
